Numbered stars: 1 amine (or outer) side, 2 acyl side, 3 side chain; on linkers, the order of the positions; unused ones are H or OH. Bridge positions count the residues as written; N and C are the ends. Square brackets hold non-standard residues; d marks the D form. Peptide text beside a SMILES is read from it. * marks the point of attachment. X19 = NC(=O)[C@H](CCCCNC(=O)CN1CCN(CC(=O)O)CCN(CC(=O)O)CCN(CC(=O)O)CC1)NC(=O)CCC(=O)NCCCOCCOCCNCCCN*; TBMB(SCH2CH2NH-DOTA) = O=C(O)CN1CCN(CC(=O)O)CCN(CC(=O)NCCSCc2cc(C[*:1])cc(C[*:2])c2)CCN(CC(=O)O)CC1; X7 = O=C(CN1CCN2CCN3CCN(CC1)CC(=O)[O][In]([O]C(=O)C2)[O]C(=O)C3)NCCSCc1cc(C[*:1])cc(C[*:2])c1; X9 = NCCNCC(CNCCN)C(=O)N[C@@H](CCC(=O)O)C(=O)NCCCOCCOCCOCCCN*; X10 = O=C([C@H](CCCc1cccc(C[*:3])c1)N[*:1])[*:2]; mXylylene = c1cc(C[*:1])cc(C[*:2])c1; Suc = O=C(CCC(=O)[*:2])[*:1]; 4Amb = NCc1ccc(C(=O)O)cc1; Nle = CCCC[C@H](N)C(=O)O; Hexanoyl = CCCCCC(=O)*; Sar = CNCC(=O)O
What was measured:
Human recombinant FAP [1] = biological target: T1, Human recombinant FAP (Homo sapiens, UniProt Q12884); test: FRET-based FAP protease activity assay; format: biochemical; parameters: purchased R&D systems 3715-SE; conditions: pIC50 Category (Activity), FRET substrate, 37° C.
T1 sequence (Q12884 1-760): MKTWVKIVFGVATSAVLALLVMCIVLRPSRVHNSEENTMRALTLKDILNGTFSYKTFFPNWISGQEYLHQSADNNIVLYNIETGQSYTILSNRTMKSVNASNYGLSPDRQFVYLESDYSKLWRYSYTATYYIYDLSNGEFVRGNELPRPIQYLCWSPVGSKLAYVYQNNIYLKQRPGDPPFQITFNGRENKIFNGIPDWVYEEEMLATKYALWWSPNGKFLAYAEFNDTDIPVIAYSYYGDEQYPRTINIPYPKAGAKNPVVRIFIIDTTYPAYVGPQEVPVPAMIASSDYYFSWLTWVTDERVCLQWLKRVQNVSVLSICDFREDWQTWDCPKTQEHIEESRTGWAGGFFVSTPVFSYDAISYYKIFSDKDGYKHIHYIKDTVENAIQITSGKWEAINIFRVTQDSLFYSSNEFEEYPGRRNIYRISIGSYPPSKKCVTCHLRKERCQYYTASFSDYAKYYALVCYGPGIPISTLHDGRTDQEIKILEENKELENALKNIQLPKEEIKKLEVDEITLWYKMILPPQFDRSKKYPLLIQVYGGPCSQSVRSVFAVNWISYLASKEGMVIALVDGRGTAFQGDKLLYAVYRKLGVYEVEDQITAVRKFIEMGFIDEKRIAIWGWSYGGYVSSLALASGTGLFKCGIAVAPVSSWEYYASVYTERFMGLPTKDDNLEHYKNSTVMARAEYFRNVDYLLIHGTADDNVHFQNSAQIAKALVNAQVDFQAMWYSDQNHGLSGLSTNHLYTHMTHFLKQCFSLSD

[2] = biological target: T2, FAP-expressing human WI-38 fibroblasts (Homo sapiens, UniProt Q12884); test: Competitive FACS binding assay; conditions: pIC50 Category (FACS), competition with 3 nM Cy5-labeled compound, 4° C., 1 hour
T2 construct: FAP-expressing human WI-38 fibroblasts (ECACC) were cultured in EMEM; host or cells: WI-38 human fibroblasts
T2 sequence (Q12884 1-760): T1 sequence (Q12884 1-760)
Procedure: Cells were analyzed in an Attune NxT flow cytometer. […]

Human recombinant FAP [3] = biological target: T1, Human recombinant FAP; test: Surface plasmon resonance (Biacore) assay; format: binding

| SMILES | IC50 (Human recombinant FAP [1]; recombinant human FAP) [nM] | IC50 ([2]; WI-38 fibroblasts) [nM] | Kd (Human recombinant FAP [3]) [nM] | IC50 (Human recombinant FAP [1]) [nM] | IC50 [2] [nM] |
| --- | --- | --- | --- | --- | --- |
| CCCCCC(=O)N[C@H]1CSCc2cccc(c2)CSC[C@@H](C(=O)N[C@@H](CC(=O)O)C(=O)NCc2ccc(C(=O)N[C@@H](CCCNC(=N)N)C(N)=O)cc2)NC(=O)[C@H](Cc2ccccc2)NC(=O)[C@H](CCC(=O)O)NC(=O)[C@H]([C@@H](C)O)NC(=O)[C@@H]2CCCN2C(=O)[C@@H]2CCCN2C1=O [3BP-3301, Hex-[Cys(3MeBn)-Pro-Pro-Thr-Glu-Phe-Cys]-Asp-Pamb-Arg-NH2] (Hexanoyl-CPPTEFCD[4Amb]R-NH2; linker 1-7 via mXylylene) | < 10 | < 10 | < 10 |  |  |
| CCCC[C@H](NC(=O)CCC(=O)NCCCOCCOCCOCCCNC(=O)C(CNCCN)CNCCN)C(=O)N[C@H]1CSCc2cccc(c2)CSC[C@@H](C(=O)O)NC(=O)[C@H](Cc2ccccc2)NC(=O)[C@H](CCC(N)=O)NC(=O)[C@H]([C@@H](C)O)NC(=O)[C@@H]2CCCN2C(=O)[C@@H]2CCCN2C1=O [3BP-4219, N4Ac-Ttds-Nle-[Cys-(3MeBn)-Pro-Pro-Thr-Gln-Phe-Cys]-OH] |  |  | < 10 | < 10 | 10 to 79.4 |
| CCCCCC(=O)N[C@H]1CSCc2cc(CSCCNC(=O)CN3CCN(CC(=O)O)CCN(CC(=O)O)CCN(CC(=O)O)CC3)cc(c2)CSC[C@@H](C(=O)O)NC(=O)[C@H](Cc2ccccc2)NC(=O)[C@H](CCC(N)=O)NC(=O)[C@H]([C@@H](C)O)NC(=O)[C@@H]2C[C@@H](O)CN2C(=O)[C@@H]2CCCN2C1 [3BP-3679, Hex-[Cys(tMeBn(DOTA-AET))-Pro-Hyp-Thr-Gln-Phe-Cys]-OH] |  |  | < 10 | < 10 | < 10 |
| CCCCCC(=O)N[C@H]1CSCc2cc(CSCCNC(=O)CN3CCN4CCN5CCN(CC3)CC(=O)[O][In]([O]C(=O)C4)[O]C(=O)C5)cc(c2)CSC[C@@H](C(=O)NCC(=O)O)NC(=O)[C@H](Cc2ccccc2)NC(=O)[C@H](CCC(N)=O)NC(=O)[C@H]([C@@H](C)O)NC(=O)[C@@H]2CCCN2C(=O)[C@@H]2CCCN2C1=O [3BP-3714, Hex-[Cys(tMeBn(InDOTA-AET))-Pro-Pro-Thr-Gln-Phe-Cys]-Gly-OH] (Hexanoyl-CPPTQFCG-OH; linker 1-7 via X7) |  |  | < 10 | < 10 | < 10 |
| CCCCCC(=O)N[C@H]1CSCc2cc(CSCCNC(=O)CN3CCN4CCN5CCN(CC3)CC(=O)[O][In]([O]C(=O)C4)[O]C(=O)C5)cc(c2)CSC[C@@H](C(=O)O)NC(=O)[C@H](Cc2ccccc2)NC(=O)[C@H](CCC(N)=O)NC(=O)[C@H]([C@@H](C)O)NC(=O)[C@@H]2CCCN2C(=O)CN(C)C1=O [3BP-3716, Hex-[Cys(tMeBn(InDOTA-AET))-Nmg-Pro-Thr-Gln-Phe-Cys]-OH] (Hexanoyl-C[Sar]PTQFC-OH; linker 1-7 via X7) |  |  | < 10 | < 10 | < 10 |
| CCCC[C@H](NC(=O)CCC(=O)NCCCOCCOCCOCCCNC(=O)[C@H](CCC(=O)O)NC(=O)C(CNCCN)CNCCN)C(=O)N[C@H]1CSCc2cccc(c2)CCC[C@@H](C(=O)O)NC(=O)[C@H](Cc2ccccc2)NC(=O)[C@H](CCC(=O)O)NC(=O)[C@H]([C@@H](C)O)NC(=O)[C@@H]2CCCN2C(=O)[C@@H]2CCCN2C1=O [3BP-4222, N4Ac-Glu-Ttds-Nle-[Cys-(3MeBn)-Pro-Pro-Thr-Glu-Phe-Cys]-OH] ({X9-Suc}-[Nle]CPPTEF[X10]-OH; thioether 2-8) |  |  | < 10 | 10 to 79.4 | 10 to 79.4 |
| CCCCCC(=O)N[C@H]1CSCc2cc(CSCCNC(=O)CN3CCN(CC(=O)O)CCN(CC(=O)O)CCN(CC(=O)O)CC3)cc(c2)CSC[C@@H](C(=O)NCCC(N)=O)NC(=O)[C@H](Cc2ccccc2)NC(=O)[C@H](CCC(N)=O)NC(=O)[C@H]([C@@H](C)O)NC(=O)[C@@H]2CCCN2C(=O)[C@@H]2CCCN2C1=O [3BP-3736, Hex-[Cys(tMeBn(DOTA-AET))-Pro-Pro-Thr-Gln-Phe-Cys]-Bal-NH2] |  |  | < 10 | < 10 | < 10 |
| CCCCCC(=O)N[C@H]1CSCc2cc(CSCCNC(=O)CN3CCN(CC(=O)O)CCN(CC(=O)O)CCN(CC(=O)O)CC3)cc(c2)CSC[C@@H](C(=O)N[C@@H](CO)C(=O)O)NC(=O)[C@H](Cc2ccccc2)NC(=O)[C@H](CCC(N)=O)NC(=O)[C@H]([C@@H](C)O)NC(=O)[C@@H]2CCCN2C(=O)[C@@H]2CCCN2C1 [3BP-3658, Hex-[Cys(tMeBn(DOTA-AET))-Pro-Pro-Thr-Gln-Phe-Cys]-Ser-OH] |  |  | < 10 | < 10 | < 10 |
| CCCCCC(=O)N[C@H]1CSCc2cc(CSCCNC(=O)CN3CCN(CC(=O)O)CCN(CC(=O)O)CCN(CC(=O)O)CC3)cc(c2)CSC[C@@H](C(=O)N[C@@H](CC(=O)O)C(=O)O)NC(=O)[C@H](Cc2ccccc2)NC(=O)[C@H](CCC(N)=O)NC(=O)[C@H]([C@@H](C)O)NC(=O)[C@@H]2CCCN2C(=O)[C@@H]2CCCN2C1=O [3BP-3665, Hex-[Cys(tMeBn(DOTA-AET))-Pro-Pro-Thr-Gln-Phe-Cys]-Asp-OH] (Hexanoyl-CPPTQFCD-OH; linker 1-7 via TBMB(SCH2CH2NH-DOTA)) |  |  | < 10 | < 10 | < 10 |
| CCCCCC(=O)N[C@H]1CSCc2cc(CSCCNC(=O)CN3CCN(CC(=O)O)CCN(CC(=O)O)CCN(CC(=O)O)CC3)cc(c2)CSC[C@@H](C(=O)NCC(=O)O)NC(=O)[C@H](Cc2ccccc2)NC(=O)[C@H](CCC(N)=O)NC(=O)[C@H]([C@@H](C)O)NC(=O)[C@@H]2CCCN2C(=O)[C@@H]2CCCN2C1 [3BP-3656, Hex-[Cys(tMeBn(DOTA-AET))-Pro-Pro-Thr-Gln-Phe-Cys]-Gly-OH] | < 10 | < 10 | < 10 |  |  |
| CCCCCC(=O)N[C@H]1CSCc2cc(CSCCNC(=O)CN3CCN(CC(=O)O)CCN(CC(=O)O)CCN(CC(=O)O)CC3)cc(c2)CSC[C@@H](C(=O)N(C)CC(=O)O)NC(=O)[C@H](Cc2ccccc2)NC(=O)[C@H](CCC(N)=O)NC(=O)[C@H]([C@@H](C)O)NC(=O)[C@@H]2CCCN2C(=O)[C@@H]2CCCN2C1 [3BP-3659, Hex-[Cys(tMeBn(DOTA-AET))-Pro-Pro-Thr-Gln-Phe-Cys]-Nmg-OH] |  |  | < 10 | < 10 | < 10 |
| CCCCCC(=O)N[C@H]1CSCc2cc(CSCCNC(=O)CN3CCN(CC(=O)O)CCN(CC(=O)O)CCN(CC(=O)O)CC3)cc(c2)CSC[C@@H](C(=O)O)NC(=O)[C@H](Cc2ccccc2)NC(=O)[C@H](CCC(N)=O)NC(=O)[C@H]([C@@H](C)O)NC(=O)[C@@H]2CCCN2C(=O)[C@@H]2CCCN2C1 [3BP-3678, Hex-[Cys(tMeBn(DOTA-AET))-Nmg-Pro-Thr-Gln-Phe-Cys]-OH] |  |  | < 10 | < 10 | < 10 |
| CCCCCC(=O)N[C@H]1CSCc2cccc(c2)CSC[C@@H](C(=O)N[C@@H](CC(=O)O)C(=O)NCCCNCCOCCOCCCNC(=O)CCC(=O)N[C@@H](CCCCNC(=O)CN2CCN(CC(=O)O)CCN(CC(=O)O)CCN(CC(=O)O)CC2)C(N)=O)NC(=O)[C@H](Cc2ccccc2)NC(=O)[C@H](CCC(N)=O)NC(=O)[C@H]([C@@H](C)O)NC(=O)[C@@H]2CCCN2C(=O)[C@@H]2CCCN2C1=O [3BP-3395, Hex-[Cys(3MeBn)-Pro-Pro-Thr-Gln-Phe-Cys]-Asp-Ttds-Lys(DOTA)-NH2] (Hexanoyl-CPPTQFCD-X19; linker 1-7 via mXylylene) | < 10 | < 10 | < 10 |  |  |
| CCCCCC(=O)N[C@H]1CSCc2cc(CSCCNC(=O)CCCN(C)C(=O)c3ccccc3-c3c4ccc(=N)c(S(=O)(=O)O)c-4oc4c(S(=O)(=O)O)c(N)ccc34)cc(c2)CSC[C@@H](C(=O)O)NC(=O)[C@H](Cc2ccccc2)NC(=O)[C@H](CCC(N)=O)NC(=O)[C@H]([C@@H](C)O)NC(=O)[C@@H]2CCCN2C(=O)[C@@H]2CCCN2C1=O [3BP-4182, Hex-[Cys(tMeBn(ATTO488-AET))-Pro-Pro-Thr-Gln-Phe-Cys]-OH] |  |  | 10 to 79.4 | 10 to 79.4 | 10 to 79.4 |
| CCCCCC(=O)N[C@H]1CSCc2cc(CSCCNC(=O)CN3CCN4CCN5CCN(CC3)CC(=O)[O][Ga]([O]C(=O)C4)[O]C(=O)C5)cc(c2)CSC[C@@H](C(=O)O)NC(=O)[C@H](Cc2ccccc2)NC(=O)[C@H](CCC(N)=O)NC(=O)[C@H]([C@@H](C)O)NC(=O)[C@@H]2CCCN2C(=O)[C@@H]2CCCN2C1 [3BP-3949, Gallium-Complex of Hex-[Cys(tMeBn(DOTA-AET))-Pro-Pro-Thr-Gln-Phe-Cys]-OH] |  |  | < 10 | < 10 | < 10 |

Reference: US20220315554A1, “COMPOUNDS COMPRISING A […] LIGAND AND USE THEREOF” (priority 2019, published 2022)
